Test results published in patent US9777020B2, “Furo-3-carboxamide derivatives and methods of use” (AbbVie Inc., priority 2014, dated 2017).

Target: TrkA (Homo sapiens (Human), UniProt P04629)
Experiment: TrkA kinase HTRF enzyme inhibition assay
Assay type: biochemical
Details: TrkA pre-incubated with 200 μM ATP
Protocol: TrkA enzyme was obtained from Invitrogen (as catalog numbers PV3144, PV3616, and PV3617, respectively). Enzyme activity was measured in an HTRF® (homogeneous time resolved fluorescence) assay, which detects enzymatic phosphorylation of a biotinylated synthetic peptide substrate (an LCK peptide analog, biotin-ahx-[…], from Genemed Synthesis). Phosphorylation is assessed by HTRF® in the presence of an anti-phosphotyrosine antibody conjugated to Eu^3+ cryptate (Cisbio) as donor fluorophore, and streptavidin conjugated to allophycocyanin (ProZyme) as acceptor fluorophore. The HTRF® signal was detected at two different wavelengths (620 nm and 665 nm) which were used to calculate the fluorescence ratio.
TrkA enzyme was titrated to a concentration optimized to ensure accurate measurement of the initial reaction rate. To allow the TrkA enzyme to undergo activation and auto-phosphorylation, a 20 minute pre-incubation with ATP was carried out (at twice the final targeted enzyme and ATP concentration) prior to addition of test compound and the peptide substrate.
TrkA in vitro assays were performed by pre-incubating TrkA (2-10 nM) with ATP (200 μM) for 20 minutes at ambient temperature in 50 mM HEPES pH 7.4, 10 mM MgCl2, 2 mM MnCl2, 100 μM Na3VO4, 1 mM dithiothreitol, 0.01% BSA (bovine serum albumin). Then, to the activated Trk enzyme mixture was added the test compound in 2% dimethyl sulfoxide. After 10 minutes, the peptide substrate (125 nM) was added. After 1 hour, enzyme reactions were terminated by addition of equal reaction volumes of detection/stop reagent (containing 0.2 μg/mL anti-phosphotyrosine monoclonal antibody labeled with europium from Cisbio (catalog#PT66-K), and 4 μg/mL PhycoLink® Streptavidin-Allophycocyanin conjugate from ProZyme (catalog#PJ25S) in 60 mM EDTA in 40 mM HEPES pH 7.4, 480 mM KF, 0.01% Tween® 20 and 0.1% BSA bovine serum albumin) Reaction plates were stored at 4° C. overnight before reading the fluorescence ratio signal on a PerkinElmer EnVision™ fluorescence detector. Individual reaction wells were stopped at time points to obtain reaction rates. The test inhibitor compounds were assayed in duplicate, at half-log serial dilutions over a range of concentrations (e.g. starting at 50 μM or 5 μM as the high compound concentration). The percent Trk enzyme inhibition was calculated from the initial rates of the inhibited reactions relative to the uninhibited control. IC50 values were calculated by fitting the inhibition percent to the concentration of inhibitor [I] in the assay in equation 1 below, to solve for the IC50. Inhibition %=100[I]/([I]+[IC50]) equation 1

Sequence of TrkA (P04629 33-796): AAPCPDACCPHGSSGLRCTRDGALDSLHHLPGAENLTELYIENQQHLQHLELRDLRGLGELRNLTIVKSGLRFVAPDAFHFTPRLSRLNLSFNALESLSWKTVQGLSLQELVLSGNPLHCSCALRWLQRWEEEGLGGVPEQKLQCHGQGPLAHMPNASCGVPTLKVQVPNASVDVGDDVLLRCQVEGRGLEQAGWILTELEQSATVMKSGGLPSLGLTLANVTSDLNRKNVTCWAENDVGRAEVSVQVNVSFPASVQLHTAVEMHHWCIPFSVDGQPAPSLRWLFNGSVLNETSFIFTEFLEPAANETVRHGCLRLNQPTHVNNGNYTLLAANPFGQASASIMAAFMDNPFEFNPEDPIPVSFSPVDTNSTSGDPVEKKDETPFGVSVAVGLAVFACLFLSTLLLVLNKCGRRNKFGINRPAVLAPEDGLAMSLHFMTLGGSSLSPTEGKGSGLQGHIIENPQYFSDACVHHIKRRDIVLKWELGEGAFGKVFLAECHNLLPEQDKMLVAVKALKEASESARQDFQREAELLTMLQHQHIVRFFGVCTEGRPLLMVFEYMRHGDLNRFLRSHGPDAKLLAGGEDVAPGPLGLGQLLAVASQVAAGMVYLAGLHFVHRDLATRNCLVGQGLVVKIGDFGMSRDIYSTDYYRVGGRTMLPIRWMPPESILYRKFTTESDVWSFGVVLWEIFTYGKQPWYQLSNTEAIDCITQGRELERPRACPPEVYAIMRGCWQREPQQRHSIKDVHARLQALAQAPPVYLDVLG

Row | IC50 | SMILES
1 | 0.0442 µM | Cn1cc2cc(NC(=O)c3coc4c3C(=O)NCC4)ccc2n1 [Example 1, N-(2-methyl-2H-indazol-5-yl)-4-oxo-4,5,6,7-tetrahydrofuro[3,2-c]pyridine-3-carboxamide]
2 | 0.173 µM | O=C(Nc1ccc(N2CCOCC2)cc1)c1coc2c1C(=O)NCC2 [Example 3, N-[4-(morpholin-4-yl)phenyl]-4-oxo-4,5,6,7-tetrahydrofuro[3,2-c]pyridine-3-carboxamide]
3 | 0.375 µM | Cc1ccc(NC(=O)c2coc3c2C(=O)N(C)CC3)cc1 [Example 4, 5-methyl-N-(4-methylphenyl)-4-oxo-4,5,6,7-tetrahydrofuro[3,2-c]pyridine-3-carboxamide]
4 | 0.0544 µM | COc1cc(N2CCN(C(=O)OC(C)(C)C)CC2)ccc1NC(=O)c1coc2c1C(=O)NCC2 [Example 5, tert-butyl 4-(3-methoxy-4-{[(4-oxo-4,5,6,7-tetrahydrofuro[3,2-c]pyridin-3-yl)carbonyl]amino}phenyl)piperazine-1-carboxylate]
5 | 0.212 µM | COc1nc(N2CCN(C)CC2)ccc1NC(=O)c1coc2c1C(=O)NCCC2 [Example 7, N-[2-methoxy-6-(4-methylpiperazin-1-yl)pyridin-3-yl]-4-oxo-5,6,7,8-tetrahydro-4H-furo[3,2-c]azepine-3-carboxamide]
6 | 0.0695 µM | CCOc1nc(N2CCN(C(C)=O)CC2)ccc1NC(=O)c1coc2c1C(=O)N(CCOCc1ccccc1)CC2 [Example 8, N-[6-(4-acetylpiperazin-1-yl)-2-ethoxypyridin-3-yl]-5-[2-(benzyloxy)ethyl]-4-oxo-4,5,6,7-tetrahydrofuro[3,2-c]pyridine-3-carboxamide]
7 | 0.0559 µM | CC(=O)N1CCN(c2ccc(NC(=O)c3coc4c3C(=O)NCC4)cc2)CC1 [Example 10, N-[4-(4-acetylpiperazin-1-yl)phenyl]-4-oxo-4,5,6,7-tetrahydrofuro[3,2-c]pyridine-3-carboxamide]
8 | 0.064 µM | Cn1ncc2cc(NC(=O)c3coc4c3C(=O)NCC4)ccc21 [Example 11, N-(1-methyl-1H-indazol-5-yl)-4-oxo-4,5,6,7-tetrahydrofuro[3,2-c]pyridine-3-carboxamide]
9 | 0.0996 µM | O=C(Nc1ccc2[nH]cnc2c1)c1coc2c1C(=O)NCC2 [Example 12, N-(1H-benzimidazol-5-yl)-4-oxo-4,5,6,7-tetrahydrofuro[3,2-c]pyridine-3-carboxamide]
10 | 0.166 µM | NC(=O)c1ccc(NC(=O)c2coc3c2C(=O)NCC3)cc1 [Example 13, N-(4-carbamoylphenyl)-4-oxo-4,5,6,7-tetrahydrofuro[3,2-c]pyridine-3-carboxamide]
11 | 0.111 µM | O=C(Nc1ccc2[nH]ncc2c1)c1coc2c1C(=O)NCC2 [Example 14, N-(1H-indazol-5-yl)-4-oxo-4,5,6,7-tetrahydrofuro[3,2-c]pyridine-3-carboxamide]
12 | 0.279 µM | CN1CCN(c2ccc(NC(=O)c3coc4c3C(=O)NCC4)nc2)CC1 [Example 16, N-[5-(4-methylpiperazin-1-yl)pyridin-2-yl]-4-oxo-4,5,6,7-tetrahydrofuro[3,2-c]pyridine-3-carboxamide]
13 | 0.0814 µM | CN1CCN(c2ccc(NC(=O)c3coc4c3C(=O)NCC4)cc2)CC1 [Example 17, N-[4-(4-methylpiperazin-1-yl)phenyl]-4-oxo-4,5,6,7-tetrahydrofuro[3,2-c]pyridine-3-carboxamide]
14 | 0.0598 µM | COc1cc(N2CCN(C(C)=O)CC2)ccc1NC(=O)c1coc2c1C(=O)NCC2 [Example 18, N-[4-(4-acetylpiperazin-1-yl)-2-methoxyphenyl]-4-oxo-4,5,6,7-tetrahydrofuro[3,2-c]pyridine-3-carboxamide]
15 | 0.0163 µM | CCOc1nc(N2CCN(C(C)=O)CC2)ccc1NC(=O)c1coc2c1C(=O)NCC2 [Example 19, N-[6-(4-acetylpiperazin-1-yl)-2-ethoxypyridin-3-yl]-4-oxo-4,5,6,7-tetrahydrofuro[3,2-c]pyridine-3-carboxamide]
16 | 0.0259 µM | COCCOc1nc(N2CCN(C(C)=O)CC2)ccc1NC(=O)c1coc2c1C(=O)NCC2 [Example 20, N-[6-(4-acetylpiperazin-1-yl)-2-(2-methoxyethoxyl)pyridin-3-yl]-4-oxo-4,5,6,7-tetrahydrofuro[3,2-c]pyridine-3-carboxamide]
17 | 0.0216 µM | CC(=O)N1CCN(c2ccc(NC(=O)c3coc4c3C(=O)NCC4)c(OC3COC3)n2)CC1 [Example 21, N-[6-(4-acetylpiperazin-1-yl)-2-(oxetan-3-yloxy)pyridin-3-yl]-4-oxo-4,5,6,7-tetrahydrofuro[3,2-c]pyridine-3-carboxamide]

Row | IC50 | SMILES
18 | 0.2 µM | CN1CCN(c2ccc(NC(=O)c3coc4c3C(=O)N(C)CC4)cc2)CC1 [Example 22, 5-methyl-N-[4-(4-methylpiperazin-1-yl)phenyl]-4-oxo-4,5,6,7-tetrahydrofuro[3,2-c]pyridine-3-carboxamide]
19 | 0.257 µM | CN1CCc2occ(C(=O)Nc3ccc4[nH]ncc4c3)c2C1=O [Example 23, N-(1H-indazol-5-yl)-5-methyl-4-oxo-4,5,6,7-tetrahydrofuro[3,2-c]pyridine-3-carboxamide]
20 | 0.189 µM | CN1CCc2occ(C(=O)Nc3ccc4c(cnn4C)c3)c2C1=O [Example 24, 5-methyl-N-(1-methyl-1H-indazol-5-yl)-4-oxo-4,5,6,7-tetrahydrofuro[3,2-c]pyridine-3-carboxamide]
21 | 0.112 µM | CN1CCc2occ(C(=O)Nc3ccc(N4CCOCC4)cc3)c2C1=O [Example 25, 5-methyl-N-[4-(morpholin-4-yl)phenyl]-4-oxo-4,5,6,7-tetrahydrofuro[3,2-c]pyridine-3-carboxamide]
22 | 0.202 µM | CN1CCc2occ(C(=O)Nc3ccc(C(N)=O)cc3)c2C1=O [Example 26, N-(4-carbamoylphenyl)-5-methyl-4-oxo-4,5,6,7-tetrahydrofuro[3,2-c]pyridine-3-carboxamide]
23 | 0.428 µM | CN1CCc2occ(C(=O)Nc3ccc4[nH]cnc4c3)c2C1=O [Example 27, N-(1H-benzimidazol-5-yl)-5-methyl-4-oxo-4,5,6,7-tetrahydrofuro[3,2-c]pyridine-3-carboxamide]
24 | 0.11 µM | CC(=O)N1CCN(c2ccc(NC(=O)c3coc4c3C(=O)N(C)CC4)cc2)CC1 [Example 28, N-[4-(4-acetylpiperazin-1-yl)phenyl]-5-methyl-4-oxo-4,5,6,7-tetrahydrofuro[3,2-c]pyridine-3-carboxamide]
25 | 0.169 µM | Cc1nc2ccc(NC(=O)c3coc4c3C(=O)N(C)CC4)cc2s1 [Example 29, 5-methyl-N-(2-methyl-1,3-benzothiazol-6-yl)-4-oxo-4,5,6,7-tetrahydrofuro[3,2-c]pyridine-3-carboxamide]
26 | 0.521 µM | Cc1ccc(NC(=O)c2coc3c2C(=O)NCC3)cc1 [Example 30, N-(4-methylphenyl)-4-oxo-4,5,6,7-tetrahydrofuro[3,2-c]pyridine-3-carboxamide]
27 | 0.39 µM | O=C(Nc1ccc(O)cc1)c1coc2c1C(=O)NCC2 [Example 31, N-(4-hydroxyphenyl)-4-oxo-4,5,6,7-tetrahydrofuro[3,2-c]pyridine-3-carboxamide]
28 | 0.554 µM | CC(=O)Nc1ccc(NC(=O)c2coc3c2C(=O)NCC3)cc1 [Example 32, N-(4-acetamidophenyl)-4-oxo-4,5,6,7-tetrahydrofuro[3,2-c]pyridine-3-carboxamide]
29 | 0.111 µM | O=C(Nc1ccc2ncccc2c1)c1coc2c1C(=O)NCC2 [Example 33, 4-oxo-N-(quinolin-6-yl)-4,5,6,7-tetrahydrofuro[3,2-c]pyridine-3-carboxamide]
30 | 0.91 µM | O=C(Nc1ccc2cn[nH]c2c1)c1coc2c1C(=O)NCC2 [Example 34, N-(1H-indazol-6-yl)-4-oxo-4,5,6,7-tetrahydrofuro[3,2-c]pyridine-3-carboxamide]
31 | 0.117 µM | COc1ccc(NC(=O)c2coc3c2C(=O)NCC3)c(OC)n1 [Example 35, N-(2,6-dimethoxypyridin-3-yl)-4-oxo-4,5,6,7-tetrahydrofuro[3,2-c]pyridine-3-carboxamide]
32 | 8.01 µM | O=C(Nc1ccon1)c1coc2c1C(=O)NCC2 [Example 36, N-(1,2-oxazol-3-yl)-4-oxo-4,5,6,7-tetrahydrofuro[3,2-c]pyridine-3-carboxamide]
33 | 3.21 µM | O=C(Nc1cnccn1)c1coc2c1C(=O)NCC2 [Example 37, 4-oxo-N-(pyrazin-2-yl)-4,5,6,7-tetrahydrofuro[3,2-c]pyridine-3-carboxamide]
34 | 1.72 µM | Cc1cc(NC(=O)c2coc3c2C(=O)NCC3)no1 [Example 38, N-(5-methyl-1,2-oxazol-3-yl)-4-oxo-4,5,6,7-tetrahydrofuro[3,2-c]pyridine-3-carboxamide]
